According to the supplement of paper PMC8617591:

Key:
[1] = test system: Mycobacterium tuberculosis Erdman (autoluminescent); assay: total FIC50 (Loewe) at 50% inhibition, three-drug combination (log2); higher = more antagonistic
Method: (§1)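 DiaMOND equipotent three-drug combination dose responses (10 doses, 1.5- or 2-fold spacing, centred on IC90) against autoluminescent M. tuberculosis Erdman in 8 in vitro models. Read-out is OD600, or luminescence for the intracellular and dormancy models, normalised to untreated wells. Hill-fit Einf, AUC25 and GRinf are potency metrics; FIC50 and FIC90 are total Loewe fractional inhibitory concentrations as log2 (negative = synergy).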

[2] = test system: Mycobacterium tuberculosis Erdman (autoluminescent); assay: total FIC90 (Loewe) at 90% inhibition, three-drug combination (log2); higher = more antagonistic
Method: as §1

[3] = test system: Mycobacterium tuberculosis Erdman (autoluminescent); assay: Einf, fitted maximum growth inhibition of three-drug combination (fraction); higher = stronger maximal inhibition
Method: as §1

[4] = test system: Mycobacterium tuberculosis Erdman (autoluminescent); assay: AUC25, normalised area under dose response up to IC25 (three-drug combination) (fraction (0-1)); higher = more potent at low dose
Method: as §1

[5] = test system: Mycobacterium tuberculosis Erdman (autoluminescent); assay: GRinf, maximum normalised growth rate inhibition (three-drug combination) (unitless (-1 to 1)); higher = less effect (negative = killing)
Method: as §1

CC(C)/N=c1\cc2n(-c3ccc(Cl)cc3)c3ccccc3nc-2cc1Nc1ccc(Cl)cc1 [clofazimine] + COc1c(N2C[C@@H]3CCCN[C@@H]3C2)c(F)cc2c(=O)c(C(=O)O)cn(C3CC3)c12 [moxifloxacin] + CO[C@H]1/C=C/O[C@@]2(C)Oc3c(C)c(O)c4c(O)c(c(/C=N/N5CCN(C)CC5)c(O)c4c3C2=O)NC(=O)/C(C)=C\C=C\[C@H](C)[C@H](O)[C@@H](C)[C@@H](O)[C@@H](C)[C@H](OC(C)=O)[C@@H]1C [rifampicin]
Conditions	AUC25, [4]	Einf, [3]	GRinf, [5]	total FIC50, [1]	total FIC90, [2]
in vitro model: acidic pH 5.7, time point: constant (~7 days, model-specific)	0.0543	0.794	0.0586	0.584	–
in vitro model: acidic pH 5.7, time point: terminal (~4-5 doublings, model-specific)	0.0718	0.984	-0.141	0.552	0.413
in vitro model: intracellular J774, time point: constant = terminal	–	0.971	-0.31	–	0.881

Conditions	AUC25, [4]	Einf, [3]	GRinf, [5]	total FIC50, [1]	total FIC90, [2]
in vitro model: butyrate, time point: constant (~7 days, model-specific)	0.118	0.961	-0.195	0.632	0.476
in vitro model: butyrate, time point: terminal (~4-5 doublings, model-specific)	0.0964	0.979	-0.129	0.441	0.673
in vitro model: cholesterol 0.05 mM, time point: constant (~7 days, model-specific)	0.111	0.622	0.0422	1.52	–
in vitro model: cholesterol 0.05 mM, time point: terminal (~4-5 doublings, model-specific)	0.0951	0.89	-0.0588	1.22	-0.407
in vitro model: cholesterol-high 0.2 mM, time point: constant (~7 days, model-specific)	0.119	0.887	-0.695	1.08	1.19
in vitro model: cholesterol-high 0.2 mM, time point: terminal (~4-5 doublings, model-specific)	0.0965	1	-1	1.33	1.21
in vitro model: dormancy (butyrate + nitrate, low O2), time point: constant (~7 days, model-specific)	0.0851	0.924	0.135	0.282	-0.619
in vitro model: dormancy (butyrate + nitrate, low O2), time point: terminal (~4-5 doublings, model-specific)	0.108	0.991	-0.361	-0.142	1.27
in vitro model: standard 7H9 glycerol, time point: constant = terminal	0.128	0.975	-0.0863	-0.17	–
in vitro model: valerate, time point: constant (~7 days, model-specific)	0.104	0.907	-0.0605	1.12	–
in vitro model: valerate, time point: terminal (~4-5 doublings, model-specific)	0.075	0.948	0.0195	0.91	1.97

CC(C)/N=c1\cc2n(-c3ccc(Cl)cc3)c3ccccc3nc-2cc1Nc1ccc(Cl)cc1 [clofazimine] + COc1c(N2C[C@@H]3CCCN[C@@H]3C2)c(F)cc2c(=O)c(C(=O)O)cn(C3CC3)c12 [moxifloxacin] + NC(=O)c1cnccn1 [pyrazinamide]
Conditions	AUC25, [4]	Einf, [3]	GRinf, [5]	total FIC50, [1]	total FIC90, [2]
in vitro model: acidic pH 5.7, time point: constant (~7 days, model-specific)	0.0994	0.605	-0.618	0.273	–
in vitro model: acidic pH 5.7, time point: terminal (~4-5 doublings, model-specific)	0.0958	0.951	-0.261	-0.216	-0.195
in vitro model: intracellular J774, time point: constant = terminal	–	0.975	-0.333	–	0.42

Conditions	AUC25, [4]	Einf, [3]	GRinf, [5]	total FIC50, [1]	total FIC90, [2]
in vitro model: butyrate, time point: constant (~7 days, model-specific)	0.127	0.968	-0.193	-0.173	0.847
in vitro model: butyrate, time point: terminal (~4-5 doublings, model-specific)	0.0926	0.973	-0.0738	-0.0902	0.342
in vitro model: cholesterol 0.05 mM, time point: constant (~7 days, model-specific)	0.129	0.646	-0.114	–	–
in vitro model: cholesterol 0.05 mM, time point: terminal (~4-5 doublings, model-specific)	0.112	0.927	-0.137	0.91	–
in vitro model: cholesterol-high 0.2 mM, time point: constant (~7 days, model-specific)	0.108	0.882	-0.3	0.275	–
in vitro model: cholesterol-high 0.2 mM, time point: terminal (~4-5 doublings, model-specific)	0.0989	0.998	-0.761	0.347	0.272
in vitro model: dormancy (butyrate + nitrate, low O2), time point: constant (~7 days, model-specific)	0.113	0.919	0.162	-0.332	-0.522
in vitro model: dormancy (butyrate + nitrate, low O2), time point: terminal (~4-5 doublings, model-specific)	0.0767	0.992	-0.202	0.182	0.297
in vitro model: standard 7H9 glycerol, time point: constant = terminal	0.111	0.974	-0.232	–	–
in vitro model: valerate, time point: constant (~7 days, model-specific)	0.122	0.852	-0.0384	0.546	–
in vitro model: valerate, time point: terminal (~4-5 doublings, model-specific)	0.067	0.914	0.0776	0.292	0.85

CC(C)/N=c1\cc2n(-c3ccc(Cl)cc3)c3ccccc3nc-2cc1Nc1ccc(Cl)cc1 [clofazimine] + COc1c(N2C[C@@H]3CCCN[C@@H]3C2)c(F)cc2c(=O)c(C(=O)O)cn(C3CC3)c12 [moxifloxacin] + O=[N+]([O-])c1cn2c(n1)OC[C@@H](OCc1ccc(OC(F)(F)F)cc1)C2 [pretomanid]
Conditions	AUC25, [4]	Einf, [3]	GRinf, [5]	total FIC50, [1]	total FIC90, [2]
in vitro model: acidic pH 5.7, time point: constant (~7 days, model-specific)	0.111	0.66	-0.331	0.779	–
in vitro model: acidic pH 5.7, time point: terminal (~4-5 doublings, model-specific)	0.0647	0.93	-0.186	0.34	0.287
in vitro model: intracellular J774, time point: constant = terminal	–	0.981	-0.328	–	-0.136

Conditions	AUC25, [4]	Einf, [3]	GRinf, [5]	total FIC50, [1]	total FIC90, [2]
in vitro model: butyrate, time point: constant (~7 days, model-specific)	0.114	0.945	-0.41	0.567	2.06
in vitro model: butyrate, time point: terminal (~4-5 doublings, model-specific)	0.101	0.989	-0.286	0.561	1.3
in vitro model: cholesterol 0.05 mM, time point: constant (~7 days, model-specific)	0.112	0.707	-0.152	0.31	–
in vitro model: cholesterol 0.05 mM, time point: terminal (~4-5 doublings, model-specific)	0.104	0.908	-0.0989	0.933	0.0471
in vitro model: cholesterol-high 0.2 mM, time point: constant (~7 days, model-specific)	0.108	0.921	-0.386	0.526	2.16
in vitro model: cholesterol-high 0.2 mM, time point: terminal (~4-5 doublings, model-specific)	0.111	1	-0.905	0.181	0.651
in vitro model: dormancy (butyrate + nitrate, low O2), time point: constant (~7 days, model-specific)	0.096	0.958	0.184	0.193	-0.0601
in vitro model: dormancy (butyrate + nitrate, low O2), time point: terminal (~4-5 doublings, model-specific)	0.0701	0.981	-0.138	0.461	0.601
in vitro model: standard 7H9 glycerol, time point: constant = terminal	0.112	0.974	-0.306	-0.121	0.463
in vitro model: valerate, time point: constant (~7 days, model-specific)	0.117	0.881	-0.0836	0.973	–
in vitro model: valerate, time point: terminal (~4-5 doublings, model-specific)	0.0939	0.934	-0.0367	0.371	-0.0804
